Data: patent US6413495B1, “X-ray intercepting metal complexes of chlorin derivatives” (Meiji Seika Kaisha, Ltd., priority 1998, dated 2002)

Columns and labels:
[1] = system: CD-1 mice (male); settings: oral administration; cited from earlier work
[2] = system: CD-1 mice (male); test: Acute toxicity by oral administration to mice; format: in vivo
Procedure: The acute toxicity, as tested by oral administration to CD-1 mice (male), of mono-L-aspartyl chlorin e6 tetra-sodium salt is already known to be such that its 50% lethal dose is 164 mg/kg, and thus the compound is of a low toxicity (refer to Japanese Patent Application Publication Kokai Hei 9-71531).

[3] = system: MKSA cells (solid ascites carcinoma in the abdominal region); test: Test Example 1: detection and therapy of tumor tissue by X-ray radiography (solid ascites carcinoma); format: in vivo, Male Balb/c mice
Procedure: (§1) Male Balb/c mice having a body weight of 16˜20 g (five mice per group) were inoculated, in their abdominal region, with MKSA cells to form a solid ascites carcinoma in the abdominal region of mouse. The mono-L-aspartyl chlorin e6-gold complex sodium salt (the product of Example 2 above) was administered at a dose of 0.01˜0.04 mg in the form of a physiological saline solution of said gold complex sodium salt to the cancer-bearing mice through their tail vein. At the end of one hour to three hours after the administration, the mice were anesthetized with nembutal. An X-ray beam containing the X-ray of the wavelength of 0.153 Å was irradiated from outside of the body to the abdominal region of the mice for an appropriate time.
X-ray image was formed by allowing the X-ray to pass through the abdominal region of mice and to expose and sensitize an X-ray film.
Thus, it was found and confirmed that the gold complex of the chlorin e6 derivative as administered to mice had exerted a cytocidal action to the ascites carcinoma cells upon the irradiation of X-ray to mice.

[4] = system: lesions of arteriosclerosis of artery; test: Test Example 2: detection and therapy of lesions of arteriosclerosis by X-ray radiography; format: in vivo, rabbit; settings: 8 mg via ear vein
Procedure: To a rabbit having a high cholesteremia and a body weight of about 4 kg was administered 8 mg of the mono-L-aspartyl chlorin e6-gold complex sodium salt (the product of Example 2) through the ear vein. One hour after the administration, anesthesia with nembutal was done to the rabbit. Then, the whole body of the rabbit was irradiated for an appropriate time with an X-ray beam containing the X-ray of the wavelength of 0.153 Å which suited to the electron absorption of the K-shell of gold atom. The X-ray which had passed through the rabbit was allowed to sensitize an X-ray film and to produce X-ray image.

[5] = system: PC-10 cells originated from human lung cancer; test: Test Example 3: X-ray radiography of PC-10 solid cancer on the back of nude mice; format: in vivo; settings: nude mice with PC-10 solid cancer on the back; procedure of Test Example 1
Procedure: as §1
The procedure of Test Example 1 was repeated except that the ascites carcinoma-bearing used in Test Example 1 were replaced by nude mice which had on the back of the body a solid cancer as formed by transplantation of PC-10 cells originated from human lung cancer.

Row | Molecule | 50% lethal dose (acute toxicity) [1] | acute toxicity upon oral administration, compared with mono-L-aspartyl chlorin e6 tetrasodium salt [2] | X-ray image of the solid cancer on X-ray film ([3]; 0.01~0.04 mg i.v. (tail vein), X-ray beam containing 0.153 Å irradiated 1-3 hours after administration) | dimensions of the solid cancer compared with those at the time of the X-ray photograph ([3]; one week after the X-ray irradiation, 0.01~0.04 mg i.v.) | X-ray image of the lesions of arteriosclerosis ([4]; rabbit with high cholesteremia, X-ray beam containing 0.153 Å one hour after administration) | dimensions of the lesions of arteriosclerosis compared with those at the time of X-ray irradiation ([4]; one week after the X-ray irradiation) | X-ray image of the solid cancer on X-ray film [5]
1 | C=Cc1c(C)c2cc3nc(c(CC(=O)N[C@@H](CC(=O)[O-])C(=O)[O-])c4[nH]c(cc5nc(cc1[nH]2)C(C)=C5CC)c(C)c4C(=O)[O-])[C@@H](CCC(=O)[O-])[C@@H]3C.[Na+].[Na+].[Na+].[Na+] [mono-L-aspartyl chlorin e6 tetra-sodium salt] | 164 mg/kg | – | – | – | – | – | –
2 | mono-L-aspartyl chlorin e6-gold complex sodium salt [Example 2] | – | substantially same as that of the mono-L-aspartyl chlorin e6 tetrasodium salt | sharply imaged | reduced significantly | sharp X-ray image | clearly diminished | Sharp X-ray image
